Experimental data: patent publication US20190367448A1, “TREATMENT OF SLEEP-WAKE DISORDERS” (SK Biopharmaceuticals Co., Ltd., priority 2005, published 2019)

System: male adult Sprague Dawley rats
Test: Sleep-wake organization in rats, polysomnographic recording (EEG, EOG, EMG, body movement) for 16 hours after acute i.p. administration
Type: in vivo, rat
Conditions: for Duration (min) Active wake / Duration (min) Deep sleep / Duration (min) Light sleep / Duration (min) Passive wake / Duration (min) REM sleep / Duration (min) intermediate stage / ISWS/TST (%) / Latency (min) ISWS / Latency (min) REM sleep / Latency (min) dSWS / REMS/TST (%) / Shifts (number) Shift from ISWS to AW / Shifts (number) Shift from ISWS to PW / Shifts (number) Shift from REMS to AW / Shifts (number) Shift from REMS to PW / Shifts (number) Shift from dSWS to AW / Shifts (number) Shift from dSWS to PW / Total sleep time TST / dSWS/TST (%): 16 hours recording period; for change in mean duration of REM sleep stage / change in number of REM sleep epochs / change in number of active wake epochs / change in number of deep sleep epochs / change in number of light sleep epochs / change in total time spent in REM sleep / change in total time spent in active wakefulness / change in total time spent in deep (rebound) sleep / change in total time spent in light sleep / change in mean duration of deep sleep stage: 16 hours recording; for change in total time spent in REM sleep / change in total time spent in active wakefulness / change in total time spent in deep (rebound) sleep / change in total time spent in light sleep: vs vehicle

SMILES: CC(N)Cc1ccccc1 (stereo not shown) [Amphetamine, amphetamine]
- period of enhanced active wakefulness (rats, 1 mg/kg): 3 h
- period of reduction in light, deep and REM sleep durations (rats, 1 mg/kg): 3 h
- Duration (min) Active wake (rats, 1 mg/kg i.p.): 382.4 min
- Duration (min) Deep sleep (rats, 1 mg/kg i.p.): 188.0 min
- Duration (min) Light sleep (rats, 1 mg/kg i.p.): 242.7 min
- Duration (min) Passive wake (rats, 1 mg/kg i.p.): 50.0 min
- Duration (min) REM sleep (rats, 1 mg/kg i.p.): 88.6 min
- Duration (min) intermediate stage (rats, 1 mg/kg i.p.): 4.0 min
- ISWS/TST (%) (rats, 1 mg/kg i.p.): 45.1 ± 5.3 %
- Latency (min) ISWS (rats, 1 mg/kg i.p.): 140.6 ± 13.4 min
- Latency (min) REM sleep (rats, 1 mg/kg i.p.): 208.6 ± 14.4 min
- Latency (min) dSWS (rats, 1 mg/kg i.p.): 161.7 ± 5.3 min
- REMS/TST (%) (rats, 1 mg/kg i.p.): 16.9 ± 0.9%
- Shifts (number) Shift from ISWS to AW (rats, 1 mg/kg i.p.): 198.8 number
- Shifts (number) Shift from ISWS to PW (rats, 1 mg/kg i.p.): 64.4 number
- Shifts (number) Shift from REMS to AW (rats, 1 mg/kg i.p.): 66.5 number
- Shifts (number) Shift from REMS to PW (rats, 1 mg/kg i.p.): 5.8 number
- Shifts (number) Shift from dSWS to AW (rats, 1 mg/kg i.p.): 11.7 number
- Shifts (number) Shift from dSWS to PW (rats, 1 mg/kg i.p.): 37.7 number
- Total sleep time TST (rats, 1 mg/kg i.p.): 523.3 ± 25.3 min
- dSWS/TST (%) (rats, 1 mg/kg i.p.): 36.6 ± 5.7 %
- change in mean duration of REM sleep stage (rats, 1 mg/kg): −16%
- change in number of REM sleep epochs (rats, 1 mg/kg): −4%
- change in number of active wake epochs (rats, 1 mg/kg): +27%
- change in number of deep sleep epochs (rats, 1 mg/kg): +73%
- change in number of light sleep epochs (rats, 1 mg/kg): −35%
- change in total time spent in REM sleep (rats, 1 mg/kg): −4%
- change in total time spent in active wakefulness (rats, 1 mg/kg): +27%
- change in total time spent in deep (rebound) sleep (rats, 1 mg/kg): +73%
- change in total time spent in light sleep (rats, 1 mg/kg): −35%
- period of enhanced active wakefulness (rats, 3 mg/kg): 4 h
- period of reduction in light, deep and REM sleep durations (rats, 3 mg/kg): 4 h
- Duration (min) Active wake (rats, 3 mg/kg i.p.): 441.8 min
- Duration (min) Deep sleep (rats, 3 mg/kg i.p.): 207.6 min
- Duration (min) Light sleep (rats, 3 mg/kg i.p.): 187.9 min
- Duration (min) Passive wake (rats, 3 mg/kg i.p.): 43.5 min
- Duration (min) REM sleep (rats, 3 mg/kg i.p.): 71.4 min
- Duration (min) intermediate stage (rats, 3 mg/kg i.p.): 4.0 min
- ISWS/TST (%) (rats, 3 mg/kg i.p.): 38.3 ± 3.4 %
- Latency (min) ISWS (rats, 3 mg/kg i.p.): 228.2 ± 25.0 min
- Latency (min) REM sleep (rats, 3 mg/kg i.p.): 338.6 ± 24.3 min
- Latency (min) dSWS (rats, 3 mg/kg i.p.): 242.0 ± 19.4 min
- REMS/TST (%) (rats, 3 mg/kg i.p.): 14.7 ± 0.7%
- Shifts (number) Shift from ISWS to AW (rats, 3 mg/kg i.p.): 178.7 number
- Shifts (number) Shift from ISWS to PW (rats, 3 mg/kg i.p.): 62.4 number
- Shifts (number) Shift from REMS to AW (rats, 3 mg/kg i.p.): 59.3 number
- Shifts (number) Shift from REMS to PW (rats, 3 mg/kg i.p.): 3.3 number
- Shifts (number) Shift from dSWS to AW (rats, 3 mg/kg i.p.): 14.8 number
- Shifts (number) Shift from dSWS to PW (rats, 3 mg/kg i.p.): 26.6 number
- Total sleep time TST (rats, 3 mg/kg i.p.): 460.9 ± 12.0 min
- dSWS/TST (%) (rats, 3 mg/kg i.p.): 46.0 ± 3.0 %
- change in mean duration of REM sleep stage (rats, 3 mg/kg): −23%
- change in mean duration of deep sleep stage (rats, 3 mg/kg): −19%
- change in number of REM sleep epochs (rats, 3 mg/kg): −22%
- change in number of active wake epochs (rats, 3 mg/kg): +47%
- change in number of deep sleep epochs (rats, 3 mg/kg): +91%
- change in number of light sleep epochs (rats, 3 mg/kg): −49%
- change in total time spent in REM sleep (rats, 3 mg/kg): −22%
- change in total time spent in active wakefulness (rats, 3 mg/kg): +47%
- change in total time spent in deep (rebound) sleep (rats, 3 mg/kg): +91%
- change in total time spent in light sleep (rats, 3 mg/kg): −49%
- period of enhanced active wakefulness (rats, 10 mg/kg): 6 h
- period of reduction in light, deep and REM sleep durations (rats, 10 mg/kg): 6 h
- Duration (min) Active wake (rats, 10 mg/kg i.p.): 498.7 min
- Duration (min) Deep sleep (rats, 10 mg/kg i.p.): 181.2 min
- Duration (min) Light sleep (rats, 10 mg/kg i.p.): 182.0 min
- Duration (min) Passive wake (rats, 10 mg/kg i.p.): 35.6 min
- Duration (min) REM sleep (rats, 10 mg/kg i.p.): 53.6 min
- Duration (min) intermediate stage (rats, 10 mg/kg i.p.): 4.0 min
- ISWS/TST (%) (rats, 10 mg/kg i.p.): 43.2 ± 5.7 %
- Latency (min) ISWS (rats, 10 mg/kg i.p.): 284.7 ± 56.1 min
- Latency (min) REM sleep (rats, 10 mg/kg i.p.): 440.8 ± 57.8 min
- Latency (min) dSWS (rats, 10 mg/kg i.p.): 367.3 ± 5.5 min
- REMS/TST (%) (rats, 10 mg/kg i.p.): 13.0 ± 0.9%
- Shifts (number) Shift from ISWS to AW (rats, 10 mg/kg i.p.): 201.7 number
- Shifts (number) Shift from ISWS to PW (rats, 10 mg/kg i.p.): 49.0 number
- Shifts (number) Shift from REMS to AW (rats, 10 mg/kg i.p.): 50.0 number
- Shifts (number) Shift from REMS to PW (rats, 10 mg/kg i.p.): 2.2 number
- Shifts (number) Shift from dSWS to AW (rats, 10 mg/kg i.p.): 9.7 number
- Shifts (number) Shift from dSWS to PW (rats, 10 mg/kg i.p.): 11.6 number
- Total sleep time TST (rats, 10 mg/kg i.p.): 422.9 ± 19.5 min
- dSWS/TST (%) (rats, 10 mg/kg i.p.): 42.9 ± 5.3 %
- change in mean duration of REM sleep stage (rats, 10 mg/kg): −36%
- change in mean duration of deep sleep stage (rats, 10 mg/kg): −30%
- change in number of REM sleep epochs (rats, 10 mg/kg): −41%
- change in number of active wake epochs (rats, 10 mg/kg): +66%
- change in number of deep sleep epochs (rats, 10 mg/kg): +66%
- change in number of light sleep epochs (rats, 10 mg/kg): −51%
- change in total time spent in REM sleep (rats, 10 mg/kg): −41%
- change in total time spent in active wakefulness (rats, 10 mg/kg): +66%
- change in total time spent in deep (rebound) sleep (rats, 10 mg/kg): +66%
- change in total time spent in light sleep (rats, 10 mg/kg): −51%
- latencies of all sleep states (rats, 1, 3, 10 mg/kg): significantly increased
- mean duration of light sleep (rats, 1, 3, and 10 mg/kg): not significantly modified
- mean duration of active wake (rats, different doses (1, 3, 10 mg/kg)): not modified
- period of increased wakefulness and reduced sleep states following administration (rats, dose-dependent, 1, 3, 10 mg/kg): 3 to 8 h
- effect on the time spent in deep sleep stage (rats, reduced during 3-6 hours following the injection, then increased (rebound)): biphasic effect
